Where “and” joins values, the source holds several entries; their conditions need not be identical. Identical values can stand only once. Records with an inconclusive call do not appear.
System: BDF1 mice, colon carcinoma 38 sc, T/C %
Assay: NCI In Vivo Anticancer Drug Screen. Data for tumor model Colon Carcinoma 38 (subcutaneous) in B6D2F1 (BDF1) mice
Procedure, shortened: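 T/C readout: treated group (T) measurement over vehicle control group (C) measurement. Endpoint is survival or tumor size in mice bearing a transplanted tumor.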

## Nc1ccc2c(c1)CN1C(=O)c3ccccc3C1=N2
endpoint: median survival time, dose: 60.0 mg/kg/injection, schedule: Q07DX002 (oral), vehicle: saline with Tween-80, higher = longer survival
  T/C: 96 % of control
endpoint: median survival time, dose: 100.0 mg/kg/injection, schedule: Q01DX008 (oral), vehicle: saline with Tween-80, higher = longer survival
  T/C: 103 % of control
endpoint: median survival time, dose: 200.0 mg/kg/injection, schedule: Q01DX008 (oral), vehicle: saline with Tween-80, higher = longer survival
  T/C: 96 % of control
endpoint: median survival time, dose: 800.0 mg/kg/injection, schedule: Q07DX002 (oral), vehicle: saline with Tween-80, higher = longer survival
  T/C: 90 % of control
endpoint: median survival time, dose: 1000.0 mg/kg/injection, schedule: Q07DX002 (oral), vehicle: saline with Tween-80, higher = longer survival
  T/C: 97 % of control
endpoint: median tumor weight (est.), dose: 50.0 mg/kg/injection, schedule: Q07DX002 (ip), vehicle: DMSO, higher = larger tumour
  T/C: 50 % of control
endpoint: median tumor weight (est.), dose: 100.0 mg/kg/injection, schedule: Q07DX002 (ip), vehicle: other, higher = larger tumour
  T/C: 13 % of control
endpoint: median tumor weight (est.), dose: 103.7 mg/kg/injection, schedule: Q01DX005 (oral), vehicle: saline with Tween-80, higher = larger tumour
  T/C: 52 % of control
endpoint: median tumor weight (est.), dose: 129.6 mg/kg/injection, schedule: Q06HX004 (oral), vehicle: saline with Tween-80, higher = larger tumour
  T/C: 26 % of control
endpoint: median tumor weight (est.), dose: 172.8 mg/kg/injection, schedule: Q01DX005 (oral), vehicle: saline with Tween-80, higher = larger tumour
  T/C: 52 % of control
endpoint: median tumor weight (est.), dose: 200.0 mg/kg/injection, schedule: Q07DX002 (oral), vehicle: saline with Tween-80, higher = larger tumour
  T/C: 27 % of control
endpoint: median tumor weight (est.), dose: 216.0 mg/kg/injection, schedule: Q06HX004 (oral), vehicle: saline with Tween-80, higher = larger tumour
  T/C: 16 % of control
endpoint: median tumor weight (est.), dose: 288.0 mg/kg/injection, schedule: Q01DX005 (oral), vehicle: saline with Tween-80, higher = larger tumour
  T/C: 7 % of control
endpoint: median tumor weight change, dose: 70.4 mg/kg/injection, schedule: Q01DX009 (oral), vehicle: saline with Tween-80, higher = larger tumour
  T/C: 13 % of control
endpoint: median tumor weight change, dose: 105.6 mg/kg/injection, schedule: Q01DX005 (oral), vehicle: saline with Tween-80, higher = larger tumour
  T/C: 68 % of control
endpoint: median tumor weight change, dose: 105.6 mg/kg/injection, schedule: Q01DX009 (oral), vehicle: saline with Tween-80, higher = larger tumour
  T/C: 42 % of control
endpoint: median tumor weight change, dose: 158.3 mg/kg/injection, schedule: Q01DX005 (oral), vehicle: saline with Tween-80, higher = larger tumour
  T/C: -5 % of control
endpoint: median tumor weight change, dose: 158.3 mg/kg/injection, schedule: Q01DX009 (oral), vehicle: saline with Tween-80, higher = larger tumour
  T/C: -40 % of control
endpoint: median tumor weight change, dose: 158.3 mg/kg/injection, schedule: Q06HX002 (oral), vehicle: saline with Tween-80, higher = larger tumour
  T/C: 71 % of control
endpoint: median tumor weight change, dose: 158.3 mg/kg/injection, schedule: Q06HX004 (oral), vehicle: saline with Tween-80, higher = larger tumour
  T/C: 60 % of control
endpoint: median tumor weight change, dose: 158.3 mg/kg/injection, schedule: Q07DX003 (oral), vehicle: saline with Tween-80, higher = larger tumour
  T/C: 24 % of control
endpoint: median tumor weight change, dose: 237.0 mg/kg/injection, schedule: Q08DX002 (oral), vehicle: saline with Tween-80, higher = larger tumour
  T/C: 33 % of control
endpoint: median tumor weight change, dose: 237.4 mg/kg/injection, schedule: Q01DX005 (oral), vehicle: saline with Tween-80, higher = larger tumour
  T/C: -60 % of control
endpoint: median tumor weight change, dose: 237.4 mg/kg/injection, schedule: Q06HX002 (oral), vehicle: saline with Tween-80, higher = larger tumour
  T/C: 37 % of control
endpoint: median tumor weight change, dose: 237.4 mg/kg/injection, schedule: Q06HX004 (oral), vehicle: saline with Tween-80, higher = larger tumour
  T/C: 36 % of control
endpoint: median tumor weight change, dose: 237.4 mg/kg/injection, schedule: Q07DX002 (oral), vehicle: saline with Tween-80, higher = larger tumour
  T/C: 80 % of control
endpoint: median tumor weight change, dose: 237.4 mg/kg/injection, schedule: Q07DX003 (oral), vehicle: saline with Tween-80, higher = larger tumour
  T/C: 69 % of control
endpoint: median tumor weight change, dose: 355.9 mg/kg/injection, schedule: Q01DX001 (oral), vehicle: saline with Tween-80, higher = larger tumour
  T/C: 68 % of control
endpoint: median tumor weight change, dose: 355.9 mg/kg/injection, schedule: Q01DX005 (oral), vehicle: saline with Tween-80, higher = larger tumour
  T/C: -88 % of control
endpoint: median tumor weight change, dose: 355.9 mg/kg/injection, schedule: Q06HX002 (oral), vehicle: saline with Tween-80, higher = larger tumour
  T/C: 48 % of control and 66 % of control
endpoint: median tumor weight change, dose: 355.9 mg/kg/injection, schedule: Q06HX004 (oral), vehicle: saline with Tween-80, higher = larger tumour
  T/C: -13 % of control
endpoint: median tumor weight change, dose: 355.9 mg/kg/injection, schedule: Q07DX002 (oral), vehicle: saline with Tween-80, higher = larger tumour
  T/C: 23 % of control
endpoint: median tumor weight change, dose: 355.9 mg/kg/injection, schedule: Q07DX003 (oral), vehicle: saline with Tween-80, higher = larger tumour
  T/C: 55 % of control
endpoint: median tumor weight change, dose: 355.9 mg/kg/injection, schedule: Q08DX002 (oral), vehicle: saline with Tween-80, higher = larger tumour
  T/C: 33 % of control
endpoint: median tumor weight change, dose: 533.6 mg/kg/injection, schedule: Q01DX001 (oral), vehicle: saline with Tween-80, higher = larger tumour
  T/C: 66 % of control
endpoint: median tumor weight change, dose: 533.6 mg/kg/injection, schedule: Q06HX002 (oral), vehicle: saline with Tween-80, higher = larger tumour
  T/C: -46 % of control and -38 % of control
endpoint: median tumor weight change, dose: 533.6 mg/kg/injection, schedule: Q06HX004 (oral), vehicle: saline with Tween-80, higher = larger tumour
  T/C: -50 % of control
endpoint: median tumor weight change, dose: 533.6 mg/kg/injection, schedule: Q07DX002 (oral), vehicle: saline with Tween-80, higher = larger tumour
  T/C: 52 % of control
endpoint: median tumor weight change, dose: 533.6 mg/kg/injection, schedule: Q07DX003 (oral), vehicle: saline with Tween-80, higher = larger tumour
  T/C: 34 % of control
endpoint: median tumor weight change, dose: 533.6 mg/kg/injection, schedule: Q08DX002 (oral), vehicle: saline with Tween-80, higher = larger tumour
  T/C: 34 % of control
endpoint: median tumor weight change, dose: 800.0 mg/kg/injection, schedule: Q01DX001 (oral), vehicle: saline with Tween-80, higher = larger tumour
  T/C: 47 % of control
endpoint: median tumor weight change, dose: 800.0 mg/kg/injection, schedule: Q06HX002 (oral), vehicle: saline with Tween-80, higher = larger tumour
  T/C: -87 % of control and -85 % of control
endpoint: median tumor weight change, dose: 800.0 mg/kg/injection, schedule: Q06HX004 (oral), vehicle: saline with Tween-80, higher = larger tumour
  T/C: -99 % of control
endpoint: median tumor weight change, dose: 800.0 mg/kg/injection, schedule: Q07DX002 (oral), vehicle: saline with Tween-80, higher = larger tumour
  T/C: 1 % of control
endpoint: median tumor weight change, dose: 800.0 mg/kg/injection, schedule: Q07DX003 (oral), vehicle: saline with Tween-80, higher = larger tumour
  T/C: -10 % of control
endpoint: median tumor weight change, dose: 800.0 mg/kg/injection, schedule: Q08DX002 (oral), vehicle: saline with Tween-80, higher = larger tumour
  T/C: -14 % of control
endpoint: median tumor weight change, dose: 1199.4 mg/kg/injection, schedule: Q01DX001 (oral), vehicle: saline with Tween-80, higher = larger tumour
  T/C: 39 % of control
endpoint: median tumor weight change, dose: 1199.4 mg/kg/injection, schedule: Q08DX002 (oral), vehicle: saline with Tween-80, higher = larger tumour
  T/C: -36 % of control

— PubChem BioAssay AID212 (DTP/NCI, 2004)
